According to publication PMC11083148, “Structure–Activity Relationship Studies on Highly Functionalized Pyrazole Hydrazones and Amides as Antiproliferative and Antioxidant Agents” (International Journal of Molecular Sciences, 2024):

How the values were obtained:
[1] = system: GM-6114; test: MTT assay, cytotoxicity on normal fibroblasts; format: cell-based; conditions: human, 48 h, 10 µM
[2] = system: MDA-MB231; test: MTT assay, antiproliferative activity; format: cell-based; conditions: for Mean growth percentage at 10 µM: Homo sapiens, MDA-MB-231, 48h
Experimental: (§1) Pyrazole acylhydrazones 10–13 and amides 14–22 were tested by MTT assay to evaluate their antiproliferative and cytotoxicity properties against a panel of eight tumor cell lines and normal fibroblasts.
(§2) All reagents were purchased from EuroClone, Milan, Italy). The following cell lines were used for MTT assays: SKOV-3 (ovarian adenocarcinoma, ATCC, Manassas, VA, USA); MCF-7 (breast adenocarcinoma, Biologic Bank and Cell Factory, IRCCS Policlinico San Martino, Genoa, Italy); Hep-G2 (hepatocellular carcinoma, ATCC, Manassas, VA, USA); SK-MEL28 (skin melanoma, Biologic Bank and Cell Factory, IRCCS Policlinico San Martino, Genoa, Italy), GM-6114 (embryonic human fibroblast, ATCC, Manassas, VA, USA); MDA-MB231 (breast adenocarcinoma, Biologic Bank and Cell Factory, IRCCS Policlinico San Martino, Genoa, Italy); HeLa (cervical adenocarcinoma, Biologic Bank and Cell Factory, IRCCS Policlinico San Martino, Genoa, Italy); SK-BR3 (breast andenocarcinoma, Biologic Bank and Cell Factory, IRCCS Policlinico San Martino, Genoa, Italy); A549 (lung carcinoma, Biologic Bank and Cell Factory, IRCCS Policlinico San Martino, Genoa, Italy); HUVEC (Human Umbilical Vein Endothelial Cells, ATCC, Manassas, VA, USA). All cell lines were grown in their medium with 10% FBS, 2 mM Glutamine, and 1% penstrep and incubated at 37 °C in 5% CO2 in a humidified environment. The cell lines were plated in 96-well plates at an adequate number to reach 80–90% confluence at the end of the assay. 16 h after cell plating, a 10 mM DMSO stock solution of the compounds was diluted in growth medium and added at a final working concentration of 10 μM. After 48h of incubation, a 2 mg/mL PBS solution of MTT (3-(4,5-dimethyl-2-thiazolyl)-2,5-diphenyl-2H-tetrazolium bromide) was added (30 μL/well). After 4h, the supernatant was removed, and the Formazan precipitates were dissolved in DMSO (100 μL/well). The 96-well plates were incubated for 20 min, and absorbance was measured at 570 nm using a plate reader. The results are expressed as a percentage ratio over control samples (100%) in which the cells were incubated with the same amount of DMSO but without compounds. Each value is the mean of three independent experiments run in six replicates.

[3] = system: A549; test: MTT assay, antiproliferative activity; format: cell-based; conditions: 48h; for activity at 10 µM: Homo sapiens, read-out: Mean Growth Percentage
Experimental: as §1, §2

[4] = system: SK-BR3; test: MTT assay, antiproliferative activity; format: cell-based; conditions: for Mean growth percentage at 10 µM: Homo sapiens, SK-BR-3, 48h
Experimental: as §1, §2

[5] = system: Hep-G2; test: MTT assay, antiproliferative activity; format: cell-based; conditions: for Mean growth percentage at 10 µM: Homo sapiens, HepG2, 48h
Experimental: as §1, §2

[6] = system: SKMEL28; test: MTT assay, antiproliferative activity; format: cell-based; conditions: 48h; for Mean growth percentage at 10 µM: Homo sapiens, SK-MEL-28, 10 µM
Experimental: as §1, §2
(§3) Each IC50 value is the mean of three independent experiments run in duplicate.

[7] = system: MCF7; test: MTT assay, antiproliferative activity; format: cell-based; conditions: 10 µM, 48h; for mean growth percentage (cell growth remaining vs control) at 10 µM: Homo sapiens
Experimental: as §1, §2, §3

[8] = system: HeLa; test: MTT assay, antiproliferative activity; format: cell-based; conditions: 10 µM, 48h; for activity at 10 µM: Homo sapiens, read-out: Mean Growth Percentage
Experimental: as §1, §2, §3

[9] = system: SKOV3; test: MTT assay, antiproliferative activity; format: cell-based; conditions: 48h; for Mean growth percentage at 10 µM: Homo sapiens, SK-OV-3, 10 µM
Experimental: as §1, §2, §3

[10] = system: washed platelets; test: ROS assay in platelets (DCFH-DA, thrombin-stimulated); format: cell-based, human; conditions: 0.1 U/mL thrombin, mean ± SD, read-out: IC50 ROS production inhibition
Experimental: (§4) The antioxidant properties of acylhydrazones 10–13 and pyrazolyl amides 14–22 were tested by evaluating their inhibition of platelet aggregation and ROS production (Figure 3, Table S1). In fact, human platelets could represent a fast and low-cost biological model to screen compounds as anticancer, anti-inflammatory, and antiaggregating agents. Moreover, ROS production inhibition, related to human platelet aggregation, could provide a good indication of the anti-inflammatory and antioxidant properties of the newly synthesized compounds [47, 50, 51, 52]. N-acetylcysteine (NAC) and acetyl salicylic acid (ASA) were used as reference drugs for antioxidant and antiaggregant activities, respectively.
(§5) Freshly drawn venous blood from healthy volunteers from “Centro Trasfusionale” (IRCCS Policlinico San Martino, Genoa, Italy) was collected into a 130 mM aqueous trisodium citrate anticoagulant solution (9:1). The donors claimed to not have taken drugs known to interfere with platelet function during the two weeks prior to blood collection and gave their informed consent. Whole blood was centrifuged at 100× g for 20 min to afford platelet-rich plasma that was then spun at 1100× g for 15 min. The obtained pellet was washed once with a pH 5.2 ACD solution (75 mM trisodium citrate, 42 mM citric acid, and 136 mM glucose), centrifuged at 1100× g for 15 min, and then re-suspended in pH 7.4 Hepes buffer (145 mM NaCl, 5 mM KCl, 1 mM MgSO4, 10 mM glucose, and 10 mM HEPES).
2′,7′-Dichlorofluorescein diacetate (DCFH-DA) and thrombin were purchased from Sigma-Aldrich/Merck Millipore. DMSO solutions of 10–22 were diluted in saline immediately before each experiment. ROS production was quantified by DCFH-DA, a ROS-sensitive probe that yields, upon oxidation, the fluorescent adduct DCF that is trapped inside the cells. Briefly, washed platelets (1.0 × 10^8/mL), pre-incubated with saline solutions of 10–22 for 15 min at 37 °C, were stimulated by 0.1 U/mL thrombin. Incubation was stopped by cooling samples in an ice bath, and then samples were immediately analyzed in a Merck Millipore Bioscience Guava easyCyte flow cytometer (Merk Millipore, Burlington, MA, USA). The reported IC50 values represent the molar concentration of the compounds able to inhibit 50% of the maximal aggregation induced by the agonist and are calculated as the percentage inhibition of the maximal aggregation measured in the presence of the agent compared with the measure in a control sample containing saline, carried out under the same conditions. The IC50 values were extrapolated from nonlinear regression analysis of concentration–response curves (three points) using MS Excel software (Microsoft 365 suite). Each IC50 value is the mean of six independent experiments.

[11] = system: washed platelets; test: Platelet aggregation (thrombin-induced, Born's method); format: cell-based; conditions: Homo sapiens, 0.1 U/mL thrombin, mean ± SD, read-out: IC50 Aggregation inhibition
Experimental: as §4, §5
Thrombin was purchased from Sigma-Aldrich/Merck Millipore. A DMSO solution of compounds 10–22 was diluted in saline immediately before each experiment and added to the washed platelets (3.0 × 10^8/mL) at 37 °C. After 3 min, 0.1 U/mL thrombin was added, and platelet aggregation was quantified according to Born’s method using a Bio-Data Aggregometer (Bio-Data Corporation, Horsham, PA, USA). The IC50 values were calculated as detailed above.

SMILES | IC50 ([10]; Homo sapiens, Platelet) [µM] | IC50 [11] [µM] | Mean Growth Percentage [1] [%] | Mean growth percentage at 10 µM [2] [%] | activity at 10 µM [3] [%] | Mean growth percentage at 10 µM [4] [%] | Mean growth percentage at 10 µM [5] [%] | Mean growth percentage at 10 µM [6] [%] | mean growth percentage (cell growth remaining vs control) at 10 µM [7] [%] | activity at 10 µM [8] [%] | Mean growth percentage at 10 µM [9] [%] | other results
COc1ccc(/C=N/NC(=O)c2c(N)nn(C)c2Nc2ccccc2)cc1OC [11b, (E)-3-amino-N′-(3,4-dimethoxybenzylidene)-1-methyl-5-(phenylamino)-1H-pyrazole-4-carbohydrazide] | 113 ± 7 | 129 ± 10 | 104.95 | 85.7 | 94.8 | 86 | 116 | 93 | 94.8 | 99.5 | 100 | –
N.N.[Cl][Pt][Cl] [CisPt, cisplatin, reference compound] | – | – | – | – | – | – | – | – | – | – | – | Mean Growth Percentage ([2]; 10 µM, 48h): 86.07%; Mean Growth Percentage ([3]; 10 µM): 59.09%; Mean Growth Percentage ([4]; 10 µM, 48h): 70.59%; Mean Growth Percentage ([5]; 10 µM, 48h): 38.07%; Mean Growth Percentage ([6]; 10 µM): 44.40%; Mean Growth Percentage [7]: 72.74%; Mean Growth Percentage [8]: 29.33%; Mean Growth Percentage ([9]; 10 µM): 36.83%
COc1ccc(/C=N/NC(=O)c2c(Nc3ccccc3)nn(C)c2N)cc1Oc1ccccc1 [12c, (E)-5-amino-N′-(4-methoxy-3-phenoxybenzylidene)-1-methyl-3-(phenylamino)-1H-pyrazole-4-carbohydrazide] | 193 ± 16 | 331 ± 14 | 104.08 | 100 | 98.5 | 82.1 | 111 | 94.6 | 88.3 | 85.2 | 104 | –
COc1ccc(/C=N/NC(=O)c2c(Nc3ccccc3)nn(C)c2N)cc1 [12a, (E)-5-amino-N′-(4-methoxybenzylidene)-1-methyl-3-(phenylamino)-1H-pyrazole-4-carbohydrazide] | 113 ± 7 | 265 ± 23 | 100.38 | 97.9 | 97.1 | 95 | 111 | 76.2 | 88.5 | 94.8 | 102 | –
COc1ccc(/C=N/NC(=O)c2c(N)nn(C)c2Nc2ccccc2)cc1Oc1ccccc1 [11c, (E)-3-amino-N′-(4-methoxy-3-phenoxybenzylidene)-1-methyl-5-(phenylamino)-1H-pyrazole-4-carbohydrazide] | 148 ± 13 | 841 ± 43 | 105.27 | 93.4 | 91.7 | 83.1 | 113 | 87.6 | 84.5 | 101 | 110 | –
CC(=O)N[C@@H](CS)C(=O)O [NAC, N-acetylcysteine, reference compound] | – | – | – | – | – | – | – | – | – | – | – | IC50 [10]: 872 µM

More lines, main results first:

IC50 ([10]; Homo sapiens, Platelet) [µM] | IC50 [11] [µM] | SMILES | Mean Growth Percentage [1] [%] | Mean growth percentage at 10 µM [2] [%] | activity at 10 µM [3] [%] | Mean growth percentage at 10 µM [4] [%] | Mean growth percentage at 10 µM [5] [%] | Mean growth percentage at 10 µM [6] [%] | mean growth percentage (cell growth remaining vs control) at 10 µM [7] [%] | activity at 10 µM [8] [%] | Mean growth percentage at 10 µM [9] [%] | other results
293 ± 18 | 294 ± 26 | CCOC(=O)c1c(NC(=O)c2ccc(OC)cc2)nn(C)c1Nc1ccccc1 [compound 19, Ethyl 3-(4-Methoxybenzamido)-1-methyl-5-(phenylamino)-1H-pyrazole-4-carboxylate] | 66.69 | 136 | 92.9 | 103 | 105 | 85.2 | 95.2 | 124 | 97.3 | melting point: 143 to 145 °C
289 ± 27 | 301 ± 24 | CCOC(=O)c1c(NC(=O)c2c(OC)cccc2OC)nn(C)c1Nc1ccccc1 [compound 20, Ethyl 3-(2,6-dimethoxybenzamido)-1-methyl-5-(phenylamino)-1H-pyrazole-4-carboxylate] | 64.71 | 124 | 70.8 | 106 | 108 | 83.6 | 92.1 | 111 | 84.4 | melting point: 158 to 160 °C
213 ± 17 | 883 ± 39 | COc1ccc(/C=N/NC(=O)c2c(Nc3ccccc3)nn(CC(O)c3ccccc3)c2N)cc1 (centres unmarked) [13a, (E)-5-amino-1-(2-hydroxy-2-phenylethyl)-N′-(4-methoxybenzylidene)-3-(phenylamino)-1H-pyrazole-4-carbohydrazide] | 99.43 | 96.4 | 94.5 | 91.8 | 85.9 | 81.8 | 81 | 83.7 | 93.8 | –
– | 438 | CC(=O)Oc1ccccc1C(=O)O [ASA, acetyl salicylic acid, reference compound] | – | – | – | – | – | – | – | – | – | –
